The structures appear in SMILES notation.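 Growth conditions: 96-well plates. Treatment: test compound, 48 hours, 5 concentrations. Analysis: linear interpolation between bracketing concentrations; unreached endpoints set to highest concentration. GI50: concentration for 50% inhibition of growth. TGI denotes the concentration required for complete inhibition of growth.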

Assay in all cases: DTP human tumour cell line panel, 48 h
Assay [1] has as its system EKVX NSCLC.
Assay [2] deals with SN12C renal.
The test system of assay [3] is T-47D breast.
Assay [4] deals with UO-31 renal.
The subject of assay [5] is HS 578T breast.
In assay [6] the test system is MALME-3M melanoma.
In assay [7] the test system is SK-OV-3 ovarian.
In assay [8] the test system is CCRF-CEM leukemia.
The subject of assay [9] is HOP-92 NSCLC.
Assay [10] concerns TK-10 renal.

On to `C=C1C(=O)O[C@H]2[C@H]1CC/C(COC(=O)c1cc3ccccc3o1)=C\CC[C@@]1(C)O[C@@H]21`, for which the GI50 was 2.02 µM in assay [1]; 1.78 µM in assay [2]; 1.35 µM in assay [3]; 1.46 µM in assay [4]; 2.91 µM in assay [5]; 1.66 µM in assay [6]. For the same molecule, the GI50 in assay [7] is 16.7 µM; in assay [8], 0.335 µM; in [9], 1.44 µM; in assay [10], 3.01 µM. In addition, the TGI in assay [1] is 6.12 µM; in assay [2], 4.12 µM; in assay [3], 3.32 µM; in [4], 2.79 µM; in assay [5] it was 10.9 µM; in assay [6], 3.27 µM. The total growth inhibition concentration (TGI) in [7] came to 32.7 µM; in assay [8], 4.03 µM; in assay [9], 3.1 µM; in [10] it was 9.45 µM.
As to `O=C1CC(=O)N(C(=O)c2nn(-c3ccc(Cl)cc3)cc2O)N1`, the GI50 was 0.845 µM in [1]; 0.494 µM in assay [2]; 0.431 µM in assay [3]; 0.529 µM in assay [4]; 0.136 µM in [5]; 0.703 µM in assay [6]. The GI50 in [7] is 1.85 µM; in assay [8] it was 0.41 µM; in [9], 0.508 µM; in assay [10], 0.35 µM. For the same molecule, the TGI in [1] is more than 100 µM; in assay [2], more than 100 µM; in assay [3], more than 71.6 µM; in assay [4], more than 100 µM; in assay [5], more than 100 µM; in [6], 46.5 µM. In addition, the TGI is more than 100 µM in [7], 16.7 µM in assay [8], more than 100 µM in assay [9] and more than 65.2 µM in assay [10].
Turning to `CS(=O)(=O)CCNCc1ccc(-c2ccc3ncnc(Nc4ccc(OCc5ccccc5)c(Br)c4)c3c2)o1`, the GI50 in [1] was 0.526 µM; in assay [2], 11.9 µM; in assay [3], 0.821 µM; in assay [4] it was 3.64 µM; in assay [5], 5.08 µM; in [6] it was 5.37 µM. For the same molecule, the GI50 was 0.115 µM in assay [7], 9.89 µM in [8], 3.49 µM in assay [9] and 2.02 µM in assay [10]. The TGI in [1] is more than 25 µM; in assay [2], more than 25 µM; in assay [3] it was 17.4 µM; in assay [4], 11.5 µM; in assay [5], 15.9 µM; in [6], 10.4 µM. The TGI is more than 25 µM in [7], more than 25 µM in assay [8], 12.5 µM in assay [9] and more than 22 µM in assay [10].
As to `O=c1ccs[nH]1`, the TGI was determined as 27.2 µM in [1]; 28.3 µM in assay [2]; 55.5 µM in assay [3]; 23 µM in assay [4]; 49.7 µM in [5]; 35.5 µM in assay [6]. Moreover, the TGI in assay [7] was 72.5 µM; in assay [8], 17.2 µM; in [9], 32.2 µM; in assay [10], 32.8 µM.
`COc1cc2ncn(-c3cc(O[C@@H](C)c4ccccc4Cl)c(C(N)=O)s3)c2cc1OC`: the GI50 was 6.66 µM in [1]; 3.05 µM in [2]; 1.8 µM in assay [3]; 5.3 µM in assay [4]; 2.11 µM in [5]; 13.7 µM in [6]. Besides, the GI50 was 0.803 µM in assay [7], 0.107 µM in assay [8], 4.67 µM in assay [9] and 4.14 µM in assay [10]. In addition, the TGI in assay [1] is more than 25 µM; in assay [2] it was more than 25 µM; in [3], 7.09 µM; in assay [4], more than 25 µM; in assay [5] it was 13.4 µM; in assay [6], more than 25 µM. For the same molecule, the TGI in [7] is more than 25 µM; in assay [8] it was more than 10.5 µM; in assay [9] it was more than 25 µM; in assay [10], more than 23.1 µM.
As to `CCCN(CCC)c1ccc(/C=C/c2ccc3cc(OCC)ccc3n2)cc1`, the GI50 in assay [1] was 91.4 µM; in assay [2], more than 100 µM; in assay [3], 15.9 µM; in assay [4] it was more than 100 µM; in assay [5], more than 100 µM; in [6] it was more than 100 µM. In addition, the GI50 in [7] was more than 100 µM; in assay [8] it was 54.3 µM; in assay [9] it was more than 100 µM; in assay [10], more than 100 µM. For the same molecule, the TGI in assay [1], in assay [2], in [3], in assay [4], in assay [5] and in assay [6] was more than 100 µM throughout. In addition, the TGI in assay [7], in assay [8], in assay [9] and in assay [10] was more than 100 µM throughout.
With `COc1ccc(-c2cc(-c3cccn3C)c(C#N)c(=O)[nH]2)cc1OC`, the GI50 in [1] was 30.7 µM; in assay [2], more than 100 µM; in assay [3], 34.7 µM; in [4] it was 85.1 µM; in assay [5], more than 100 µM; in assay [6] it was more than 100 µM. Moreover, the GI50 in assay [7] was more than 100 µM; in assay [8], 5.02 µM; in assay [9], 0.0508 µM; in [10], more than 100 µM. For the same molecule, the TGI in [1], in assay [2], in [3], in assay [4], in assay [5] and in assay [6] was more than 100 µM throughout. Also, the TGI in assay [7] was more than 100 µM; in assay [8], more than 100 µM; in assay [9], 9.8 µM; in [10] it was more than 100 µM.
With `O=c1cc(N2CCN(CCCCCOc3cc(O)c4c(=O)cc(-c5ccccc5)oc4c3)CC2)c2ccccc2o1`, the GI50 in [1] is more than 100 µM; in [2], 45.4 µM; in assay [3] it was more than 100 µM; in assay [4], 50.8 µM; in assay [5] it was more than 100 µM; in [6] it was 39.2 µM. In addition, the GI50 in assay [7] was more than 100 µM; in assay [8], 19.3 µM; in [9], 26.1 µM; in assay [10], more than 100 µM. In addition, the TGI in assay [1], in assay [2], in [3], in assay [4], in assay [5] and in assay [6] was more than 100 µM each time. The concentration for total growth inhibition (TGI) in assay [7], in assay [8], in assay [9] and in [10] was more than 100 µM throughout.
For `Nc1c2c(c(O)c3c1=C(CO)C=N3)=NCCS2`, the GI50 in assay [1] was 0.311 µM; in assay [2], 0.167 µM; in assay [3], 0.224 µM; in assay [4], 0.161 µM; in assay [5], 0.318 µM; in assay [6], 0.0347 µM. Further, the GI50 in [7] is 0.346 µM; in assay [8], 0.329 µM; in assay [9], 0.761 µM; in [10], 0.42 µM. The TGI came out at 1.2 µM in assay [1]; 0.332 µM in assay [2]; 0.484 µM in [3]; 0.345 µM in assay [4]; 0.812 µM in [5]; 0.108 µM in assay [6]. Further, the TGI was found to be 1.2 µM in [7], 1.9 µM in assay [8], 2.5 µM in assay [9] and 1.46 µM in assay [10].
On to `C=C1C(=O)O[C@H]2[C@H]1CC/C(COC(=O)C(=O)c1cn(C)c3ccc(Cl)cc13)=C\CC[C@@]1(C)O[C@@H]21`, for which the GI50 in [1] was 1.92 µM; in assay [2], 1.39 µM; in assay [3], 1.46 µM; in [4], 0.817 µM; in [5] it was 3.14 µM; in [6], 1.74 µM. The GI50 in assay [7] is 3.28 µM; in assay [8], 0.338 µM; in [9] it was 1.72 µM; in assay [10], 1.42 µM. Further, the TGI is 4.29 µM in [1]; 4.71 µM in [2]; 3.27 µM in assay [3]; 2.17 µM in assay [4]; 17.6 µM in [5]; 4.28 µM in assay [6]. Further, the TGI came out at 10.9 µM in [8], 3.62 µM in assay [9] and 2.98 µM in [10].
Consider `COc1ccc(-c2cc(-c3ccc(Cl)cc3)nc(SCCCC(=O)NO)n2)cc1`, for which the GI50 was 1.21 µM in assay [1]; 0.654 µM in assay [2]; 0.801 µM in assay [3]; 0.237 µM in assay [4]; 2.08 µM in assay [5]; 1.86 µM in assay [6]. Also, the GI50 in [7] was 1.67 µM; in assay [8] it was 0.222 µM; in assay [9], 1.8 µM; in assay [10], 0.499 µM. Moreover, the TGI in assay [1] is 8.76 µM; in [2], more than 20.5 µM; in assay [3] it was 7.46 µM; in assay [4] it was 1 µM; in [5], 11.2 µM; in [6] it was 7.01 µM. The TGI was 5.68 µM in assay [7], more than 100 µM in [8], 5.07 µM in assay [9] and 5.78 µM in assay [10].
Consider `Cc1cc(O)cc2c1[C@]1(C)CCC3C(C)(C)CCC[C@]3(C)[C@H]1C2` (some centres undefined), for which the GI50 in [1] was 19.9 µM; in assay [2] it was 17.2 µM; in [3], 16.7 µM; in [4], 20.5 µM; in assay [5], 22.6 µM; in assay [6], 23.2 µM. Further, the GI50 in assay [7] was 21.9 µM; in [8], 29.6 µM; in assay [9], 18.4 µM; in [10], 18.7 µM. Moreover, the TGI in [1] was 36.6 µM; in assay [2], 32.3 µM; in [3] it was 43.3 µM; in assay [4] it was 36.4 µM; in assay [5] it was 44.6 µM; in assay [6] it was 39.4 µM. The TGI is 38.6 µM in [7], 92 µM in assay [8], 35.3 µM in assay [9] and 36.4 µM in assay [10].
Take `CCN(Cc1ccccc1)c1ccc(CO)c(Cl)c1`: the GI50 in assay [1] is 20.1 µM; in assay [2] it was 19.8 µM; in [3] it was 0.278 µM; in assay [4], 6.5 µM; in assay [5], 23.2 µM; in assay [6], 28.6 µM. In addition, the GI50 was 5.78 µM in assay [7], 23.3 µM in assay [8], 1.67 µM in assay [9] and 0.0649 µM in assay [10]. The TGI in assay [1] was 74.5 µM; in assay [2], more than 100 µM; in [3], 2.25 µM; in assay [4] it was more than 100 µM; in [5] it was more than 84.9 µM; in assay [6], more than 82.6 µM. Moreover, the TGI in assay [7] was 35.6 µM; in assay [8] it was more than 100 µM; in [9], 15.3 µM; in [10] it was 0.281 µM.
`C#CC1(OC(C)=O)CCC2C3CC=C4C=C(OC(C)=O)CCC4(C)C3CCC21C` (centres undefined): the TGI in [1] was 80 µM; in [2], 45.1 µM; in assay [3] it was more than 100 µM; in assay [4], 54.4 µM; in [5], more than 100 µM; in assay [6], 33.9 µM. Further, the TGI was more than 100 µM in [7], 30.5 µM in assay [8], 32.9 µM in assay [9] and 51.6 µM in assay [10].
Turning to `CCC(=O)Nc1ccccc1C#C/C=C\C#Cc1ccccc1SC`, the GI50 is 7.11 µM in [1]; 26.7 µM in [2]; 8.96 µM in assay [3]; 0.838 µM in [4]; 17.1 µM in [5]; 35.1 µM in assay [6]. Moreover, the GI50 in assay [7] is 53.7 µM; in assay [8], 2.75 µM; in assay [9] it was 3.96 µM; in assay [10] it was 50.4 µM. The TGI is 78.5 µM in assay [1]; more than 100 µM in [2]; more than 100 µM in [3]; 28.6 µM in [4]; more than 100 µM in assay [5]; more than 100 µM in [6]. Further, the TGI is more than 100 µM in assay [7], 23.7 µM in assay [8], 78.7 µM in assay [9] and more than 100 µM in assay [10].

These data come from PubChem BioAssay (NCI).
